# Earlier results in patent publication US7939102B2, “Controlled release formulation of lamotrigine” (Torrent Pharmaceuticals Ltd., priority 2003, dated 2011).
# Tests used:
# [1] = system: seizures; conditions: acute and chronic studies in humans (Betts et al, 1991)
# [2] = not given; remark: listed apart in the source
compound,measurement,setting,value
"Nc1nnc(-c2cccc(Cl)c2Cl)c(N)n1 [lamotrigine, 3,5-diamino-6(2,3-dichlorophenyl)-1,2,4-triazine]",lamotrigine levels effective in controlling seizures,[1],1 to 3 µg/mL
same,dose dependence of plasma concentrations,"Ramsay RE, 1991",vary linearly with the dose
same,increase of plasma concentrations with concomitant sodium valproate,"valproate reduces hepatic clearance, for a given dose",approximately two fold
same,plasma levels at which side effects were reported,"[2]; Binnie et al., 1987, side effects only in patients above this level",above 3 μg/ml
same,"incidence of side effects (dizziness, ataxia, diplopia, somnolence, headache, asthenia)","[2]; Ramsay RE, 1991",around 10%
same,patients reporting headache and ataxia,"[2]; first 18 weeks of treatment, at >10 μg/ml",100%
same,patients reporting nausea and vomiting,"[2]; first 18 weeks of treatment, mean concentration of 6.00 to 7.99 μg/ml",16.7%
same,discontinuation of therapy due to rash,[2]; placebo-controlled trials,1%
same,patients with rash,[2]; placebo-controlled trials,10%
same,patients removed from clinical trials because of adverse experiences,"[2]; rash, nausea/vomiting, CNS-related events",8.6%
